In this assay the target is GLP-1 Receptor (Homo sapiens, UniProt P43220). As to the kind of experiment: GLP-1R agonist cAMP stimulation assay (HEK293/GLP1R/CRE-LUC cells, HTRF cAMP dynamic 2 kit). In kind it is cell-based. The following applies: HEK293/CRE-Luc cell line stably expressing the GLP-1 Receptor; 30 min incubation at 37° C. As for the experimental part:
Activation of GLP-1 receptor is known to stimulate cyclic AMP (cAMP) production in cells which indicates primary coupling to the Gas subunit of the G protein heterotrimeric complex.
To optimize functional activity directed toward Gas coupling, a HEK293/CRE-Luc cell line developed by HDB stably expressing the GLP-1 Receptor was used. 200× concentration of compound working solutions were prepared (Agilent Technologies Bravo) with 1/2 log serial dilution in 384-well Echo LDV plate (Labcyte, Cat #LP-0200). 50 nL/well 200× concentration of compound working solutions were moved to 384-well white low volume plate (Greiner, Cat #784075) using Labcyte ECHO550. 1×10^5 cells/mL HEK293/GLP1R/CRE-LUC (HD Biosciences) cell suspensions prepared with assay buffer [DPBS containing 0.5 mM IBMX (Sigma, Cat #15879) and 0.10% BSA (GENVIEW, Cat #FA016-100g)], 10 μL cell suspensions were added to each well of previous generated assay plate which already contains 50 nL compound at 200× concentration using ThermoFisher Multidrop Combi (1000 cells/well). Seal the plate and incubate at 37° C. with 5% CO2 for 30 min.
After incubation the cAMP assay signal was generated using cAMP dynamic 2 Kit (Cisbio). 5 μL cAMP-d2 working solution was added to each well, followed with 5 μL Anti-cAMP antibody-cryptate working solution added to each well using ThermoFisher Multidrop Combi. Incubate at room temperature for 1 hour protected from light. Read the fluorescence at 665 and 615 nm with Reader PerkinElmer EnVision.

Each structure is given as a SMILES string.

From patent US20250206757A1 (GASHERBRUM BIO, INC., priority 2022, published 2025) come the findings set out here.

GLP-1 Receptor, sequence (P43220 24-463): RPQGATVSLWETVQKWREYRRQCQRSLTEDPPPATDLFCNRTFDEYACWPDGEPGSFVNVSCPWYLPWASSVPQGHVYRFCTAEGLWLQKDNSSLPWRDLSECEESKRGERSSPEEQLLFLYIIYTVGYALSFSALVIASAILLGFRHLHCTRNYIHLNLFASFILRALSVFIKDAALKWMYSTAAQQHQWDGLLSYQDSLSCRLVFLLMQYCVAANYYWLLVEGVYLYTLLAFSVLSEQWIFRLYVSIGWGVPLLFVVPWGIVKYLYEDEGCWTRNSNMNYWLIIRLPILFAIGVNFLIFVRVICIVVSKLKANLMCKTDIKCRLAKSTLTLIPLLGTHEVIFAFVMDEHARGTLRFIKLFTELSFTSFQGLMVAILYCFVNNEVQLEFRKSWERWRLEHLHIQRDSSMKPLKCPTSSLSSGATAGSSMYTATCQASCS

As to `N#Cc1nnc(-c2cc3nc(CN4CCc5cc(Cl)c(OCc6ccc(Cl)cc6F)nc5C4)n(C[C@@H]4CCO4)c3cn2)[nH]1` [Compound 8, 5-[2-({3-chloro-2-[(4-chloro-2-fluorophenyl)methoxy]-5,6,7,8-tetrahydro-1,7-naphthyridin-7-yl}methyl)-3-{[(2S)-oxetan-2-yl]methyl}-3H-imidazo[4,5-c]pyridin-6-yl]-4H-1,2,4-triazole-3-carbonitrile], the EC50 was below 1 nM.

Consider `N#Cc1nnc(-c2cc3nc(CN4CCc5cc(Cl)c(OCc6c(F)cc(Cl)cc6F)nc5C4)n(C[C@@H]4CCO4)c3cn2)[nH]1` [Compound 9, 5-[2-({3-chloro-2-[(4-chloro-2,6-difluorophenyl)methoxy]-5,6,7,8-tetrahydro-1,7-naphthyridin-7-yl}methyl)-3-{[(2S)-oxetan-2-yl]methyl}-3H-imidazo[4,5-c]pyridin-6-yl]-4H-1,2,4-triazole-3-carbonitrile], for which the EC50 was below 1 nM.

`N#CC1(Cc2cc(-c3nnc(C(F)(F)F)[nH]3)cnc2CN2CCc3cc(C(F)(F)F)c(OCc4ccc(Cl)cc4F)nc3C2)CC1` [Compound 10, 1-{[2-({2-[(4-chloro-2-fluorophenyl)methoxy]-3-(trifluoromethyl)-5,6,7,8-tetrahydro-1,7-naphthyridin-7-yl}methyl)-5-[5-(trifluoromethyl)-4H-1,2,4-triazol-3-yl]pyridin-3-yl]methyl}cyclopropane-1-carbonitrile]: the half-maximal effective concentration (EC50) lay in the range of 1 to 300 nM.

For `N#CC1(Cc2cc(-c3nnc(C(F)(F)F)[nH]3)cnc2CN2CCc3cc(Cl)c(OCc4ccc(Cl)cc4F)nc3C2)CC1` [Compound 11, 1-{[2-({3-chloro-2-[(4-chloro-2-fluorophenyl)methoxy]-5,6,7,8-tetrahydro-1,7-naphthyridin-7-yl}methyl)-5-[5-(trifluoromethyl)-4H-1,2,4-triazol-3-yl]pyridin-3-yl]methyl}cyclopropane-1-carbonitrile], the EC50 was above 300 nM.

`Cc1cc(-c2nnc(C(F)(F)F)[nH]2)cnc1CN1CCc2cc(Cl)c(OCc3ccc(Cl)cc3F)nc2C1` [Compound 12, 3-chloro-2-[(4-chloro-2-fluorophenyl)methoxy]-7-({3-methyl-5-[5-(trifluoromethyl)-4H-1,2,4-triazol-3-yl]pyridin-2-yl}methyl)-5,6,7,8-tetrahydro-1,7-naphthyridine] had an EC50 above 300 nM.

Take `Cc1cc(-c2nnc(C(F)(F)F)[nH]2)nnc1CN1CCc2cc(C(F)(F)F)c(OCc3ccc(Cl)cc3F)nc2C1` [Compound 13, 2-[(4-chloro-2-fluorophenyl)methoxy]-7-({4-methyl-6-[5-(trifluoromethyl)-4H-1,2,4-triazol-3-yl]pyridazin-3-yl}methyl)-3-(trifluoromethyl)-5,6,7,8-tetrahydro-1,7-naphthyridine]: the EC50 is above 300 nM.

`Fc1cc(Cl)ccc1COc1nc2c(cc1C(F)(F)F)CCN(Cc1nc3cc(-c4nnn[nH]4)ncc3n1C[C@@H]1CCO1)C2` [Compound 14, 2-[(4-chloro-2-fluorophenyl)methoxy]-7-[(3-{[(2S)-oxetan-2-yl]methyl}-6-(1H-1,2,3,4-tetrazol-5-yl)-3H-imidazo[4,5-c]pyridin-2-yl)methyl]-3-(trifluoromethyl)-5,6,7,8-tetrahydro-1,7-naphthyridine] gave an EC50 below 1 nM.

`Fc1cc(Cl)ccc1COc1nc2c(cc1C(F)(F)F)CCN(Cc1nc3cc(-c4nnn[nH]4)cnc3n1C[C@@H]1CCO1)C2` [Compound 15, 2-[(4-chloro-2-fluorophenyl)methoxy]-7-[(3-{[(2S)-oxetan-2-yl]methyl}-6-(1H-1,2,3,4-tetrazol-5-yl)-3H-imidazo[4,5-b]pyridin-2-yl)methyl]-3-(trifluoromethyl)-5,6,7,8-tetrahydro-1,7-naphthyridine] came in with a concentration giving a half-maximal response (EC50) below 1 nM.

For the compound `Fc1cc(Cl)ccc1COc1nc2c(cc1C(F)(F)F)CCN(Cc1nc3cc(-c4nnc(C(F)(F)F)[nH]4)cnc3n1C[C@@H]1CCO1)C2` [Compound 16, 2-[(4-chloro-2-fluorophenyl)methoxy]-7-[(3-{[(2S)-oxetan-2-yl]methyl}-6-[5-(trifluoromethyl)-4H-1,2,4-triazol-3-yl]-3H-imidazo[4,5-b]pyridin-2-yl)methyl]-3-(trifluoromethyl)-5,6,7,8-tetrahydro-1,7-naphthyridine], the 50% effective concentration (EC50) was below 1 nM.

In turn, `N#Cc1nnc(-c2cnc3c(c2)nc(CN2CCc4cc(C(F)(F)F)c(OCc5ccc(Cl)cc5F)nc4C2)n3C[C@@H]2CCO2)[nH]1` [Compound 17, 5-[2-({2-[(4-chloro-2-fluorophenyl)methoxy]-3-(trifluoromethyl)-5,6,7,8-tetrahydro-1,7-naphthyridin-7-yl}methyl)-3-{1[(2S)-oxetan-2-yl]methyl}-3H-imidazo[4,5-b]pyridin-6-yl]-4H-1,2,4-triazole-3-carbonitrile] registered an EC50 below 1 nM.

As to `N#Cc1nnc(-c2cc3nc(CN4CCc5cc(C(F)(F)F)c(OCc6ccc(Cl)cc6F)nc5C4)n(C[C@@H]4CCO4)c3cn2)[nH]1` [Compound 20, 5-[2-({2-[(4-chloro-2-fluorophenyl)methoxy]-3-(trifluoromethyl)-5,6,7,8-tetrahydro-1,7-naphthyridin-7-yl}methyl)-3-{[(2S)-oxetan-2-yl]methyl}-3H-imidazo[4,5-c]pyridin-6-yl]-4H-1,2,4-triazole-3-carbonitrile], the EC50 was below 1 nM.

`O=C(NCC(F)(F)F)c1ccc2c(nc(CN3CCc4cc(C(F)(F)F)c(OCc5ccc(Cl)cc5F)nc4C3)n2C[C@@H]2CCO2)c1F` [Compound 21, 2-({2-[(4-chloro-2-fluorophenyl)methoxy]-3-(trifluoromethyl)-5,6,7,8-tetrahydro-1,7-naphthyridin-7-yl}methyl)-4-fluoro-1-{[(2S)-oxetan-2-yl]methyl}-N-(2,2,2-trifluoroethyl)-1H-1,3-benzodiazole-5-carboxamide] displayed an EC50 of 1 to 300 nM.

With `CNC(=O)c1ccc2c(nc(CN3CCc4cc(C(F)(F)F)c(OCc5ccc(Cl)cc5F)nc4C3)n2C[C@@H]2CCO2)c1F` [Compound 22, 2-({2-[(4-chloro-2-fluorophenyl)methoxy]-3-(trifluoromethyl)-5,6,7,8-tetrahydro-1,7-naphthyridin-7-yl}methyl)-4-fluoro-N-methyl-1-{[(2S)-oxetan-2-yl]methyl}-1H-1,3-benzodiazole-5-carboxamide], the EC50 was in the range of 1 to 300 nM.

Compound `O=C(NCC(F)(F)F)c1cc2nc(CN3CCc4cc(C(F)(F)F)c(OCc5ccc(Cl)cc5F)nc4C3)n(C[C@@H]3CCO3)c2cn1` [Compound 23, 2-({2-[(4-chloro-2-fluorophenyl)methoxy]-3-(trifluoromethyl)-5,6,7,8-tetrahydro-1,7-naphthyridin-7-yl}methyl)-3-{[(2S)-oxetan-2-yl]methyl}-N-(2,2,2-trifluoroethyl)-3H-imidazo[4,5-c]pyridine-6-carboxamide] yielded an EC50 of 1 to 300 nM.

For the compound `CNC(=O)c1cc2nc(CN3CCc4cc(C(F)(F)F)c(OCc5ccc(Cl)cc5F)nc4C3)n(C[C@@H]3CCO3)c2cn1` [Compound 24, 2-({2-[(4-chloro-2-fluorophenyl)methoxy]-3-(trifluoromethyl)-5,6,7,8-tetrahydro-1,7-naphthyridin-7-yl}methyl)-N-methyl-3-{[(2S)-oxetan-2-yl]methyl}-3H-imidazo[4,5-c]pyridine-6-carboxamide], the concentration for a half-maximal effect (EC50) was 1 to 300 nM.

Compound `O=C(O)c1ccc2c(n1)nc(CN1CCc3cc(C(F)(F)F)c(OCc4ccc(Cl)cc4F)nc3C1)n2C[C@@H]1CCO1` [Compound 25, 2-({2-[(4-chloro-2-fluorophenyl)methoxy]-3-(trifluoromethyl)-5,6,7,8-tetrahydro-1,7-naphthyridin-7-yl}methyl)-1-{[(2S)-oxetan-2-yl]methyl}-1H-imidazo[4,5-b]pyridine-5-carboxylic acid] came in with an EC50 of 1 to 300 nM.

`O=C(O)c1cc2nc(CN3CCc4cc(C(F)(F)F)c(OCc5ccc(Cl)cc5F)nc4C3)n(C[C@@H]3CCO3)c2cn1` [Compound 26, 2-({2-[(4-chloro-2-fluorophenyl)methoxy]-3-(trifluoromethyl)-5,6,7,8-tetrahydro-1,7-naphthyridin-7-yl}methyl)-3-{[(2S)-oxetan-2-yl]methyl}-3H-imidazo[4,5-c]pyridine-6-carboxylic acid] gave an EC50 below 1 nM.

`O=C(O)c1ccc2c(nc(CN3CCc4cc(C(F)(F)F)c(OCc5ccc(Cl)cc5F)nc4C3)n2C[C@@H]2CCO2)c1F` [Compound 27, 2-({2-[(4-chloro-2-fluorophenyl)methoxy]-3-(trifluoromethyl)-5,6,7,8-tetrahydro-1,7-naphthyridin-7-yl}methyl)-4-fluoro-1-{[(2S)-oxetan-2-yl]methyl}-1H-1,3-benzodiazole-5-carboxylic acid] showed a concentration giving a half-maximal response (EC50) of 1 to 300 nM.

Consider `O=C(O)c1ccc2c(c1)nc(CN1CCc3cc(C(F)(F)F)c(OCc4ccc(Cl)cc4F)nc3C1)n2C[C@@H]1CCO1` [Compound 28, 2-({2-[(4-chloro-2-fluorophenyl)methoxy]-3-(trifluoromethyl)-5,6,7,8-tetrahydro-1,7-naphthyridin-7-yl}methyl)-1-{[(2S)-oxetan-2-yl]methyl}-1H-1,3-benzodiazole-5-carboxylic acid], for which the concentration giving a half-maximal response (EC50) is below 1 nM.
